Assay results reported in US6727076B2 (priority 1995, dated 2004).
Peptide text beside a SMILES is read from it.

Columns and labels:
[1] = tested on: E. coli 287 (ATCC #11775); assay type: cell-based
T. harzianum DAOM 190830 = assay type: cell-based, Trichoderma harzianum
E. coli MG1655 [2] = assay type: cell-based
[3] = tested on: E. coli strain 14444 (MG1655 xylA); assay type: cell-based
[4] = tested on: E. coli strain 14445 (MG1655 himA); assay type: cell-based
[5] = tested on: E. coli strain 14443 (MG1655 (FB426)); assay type: cell-based
[6] = tested on: E. coli strain 6320 (W3110); assay type: cell-based; note: key: '+' indicates that the organism tested was capable of utilizing the carbon source listed; '−' indicates that the organism tested was not capable of utilizing the carbon source listed; 'w' indicates weak positive reactions
[7] = tested on: E. coli strain 6321 (MG1655); assay type: cell-based; note: key: '+' indicates that the organism tested was capable of utilizing the carbon source listed; '−' indicates that the organism tested was not capable of utilizing the carbon source listed; 'w' indicates weak positive reactions
[8] = tested on: E. coli strain 6322 (EMG2 (K12, λF+)); assay type: cell-based; note: key: '+' indicates that the organism tested was capable of utilizing the carbon source listed; '−' indicates that the organism tested was not capable of utilizing the carbon source listed; 'w' indicates weak positive reactions
[9] = tested on: E. coli strain 11547 (O157:H7); assay type: cell-based
[10] = tested on: E. coli strain 13671 (O157:H? gur+); assay type: cell-based
[11] = tested on: E. coli strain 13673 (O157); assay type: cell-based
[12] = tested on: E. coli strain 13675 (O157); assay type: cell-based
S. typhimurium pyrCΔ73 = assay type: cell-based, Salmonella typhimurium
E. coli MG1655 [13] = assay type: cell-based; remark: listed apart in the source

C[C@H](N)C(=O)NCC(=O)O [L-alanyl-glycine] (H-Ala-Gly-OH)
carbon source utilization result [1]: positive | carbon source utilization result (T. harzianum DAOM 190830): positive | suitability as nitrogen source (growth, purple color) (E. coli MG1655 [2]): positive

OC[C@H]1O[C@H](O[C@H]2[C@H](O)[C@@H](O)[C@H](O)O[C@@H]2CO)[C@H](O)[C@@H](O)[C@@H]1O [Maltose]
carbon source utilization, in words [3]: negative | carbon source utilization, in words [4]: negative | carbon source utilization result [1]: positive

CC(O)CO (centres unmarked) [1,2-propanediol]
carbon source utilization [5]: − | carbon source utilization [3]: − | carbon source utilization [4]: − | carbon source utilization [6]: − | carbon source utilization [7]: − | carbon source utilization [8]: − | carbon source utilization [9]: − | carbon source utilization [10]: − | carbon source utilization [11]: − | carbon source utilization [12]: −

O=C1O[C@H]([C@@H](O)CO)[C@@H](O)[C@@H]1O [L-galactonic acid γ-lactone]
carbon source utilization [5]: + | carbon source utilization [3]: + | carbon source utilization [4]: + | carbon source utilization [6]: + | carbon source utilization [7]: + | carbon source utilization [8]: + | carbon source utilization [9]: + | carbon source utilization [10]: + | carbon source utilization [11]: + | carbon source utilization [12]: +

CCC(=O)C(=O)O [α-ketobutyric acid]
carbon source utilization, in words [4]: negative | carbon source utilization result [1]: positive

Nc1nc2nc[nH]c2c(=O)[nH]1 [guanine]
growth stimulation by supplement (well color) (S. typhimurium pyrCΔ73): turned weakly purple

O=c1ccn([C@@H]2O[C@H](CO)[C@@H](O)[C@H]2O)c(=O)[nH]1 [Uridine]
carbon source utilization result [1]: positive | suitability as nitrogen source (growth, purple color) (E. coli MG1655 [2]): not suitable | growth stimulation by supplement (well color) (S. typhimurium pyrCΔ73): turned purple

Nc1ccn([C@@H]2O[C@H](CO)[C@@H](O)[C@H]2O)c(=O)n1 [cytidine]
growth stimulation by supplement (well color) (S. typhimurium pyrCΔ73): turned purple

CCC(O)C(=O)O (stereo not drawn) [α-hydroxy butyric acid]
carbon source utilization, in words [4]: negative

CC(=O)N[C@H]1C(O)O[C@H](CO)[C@@H](O)[C@@H]1O (stereo partly drawn) [N-acetyl-D-glucosamine]
carbon source utilization result [1]: positive | carbon source utilization result (T. harzianum DAOM 190830): positive | suitability as nitrogen source (growth, purple color) (E. coli MG1655 [2]): positive

NCC(=O)N[C@@H](CCC(=O)O)C(=O)O [Glycyl-L-glutamic acid] (H-Gly-Glu-OH)
carbon source utilization result [1]: positive | carbon source utilization result (T. harzianum DAOM 190830): positive | suitability as nitrogen source (growth, purple color) (E. coli MG1655 [2]): positive

Tween-80
carbon source utilization [5]: − | carbon source utilization [3]: − | carbon source utilization [4]: − | carbon source utilization [7]: + | carbon source utilization result [1]: positive | carbon source utilization result (T. harzianum DAOM 190830): positive

Nc1ccn([C@H]2C[C@H](O)[C@@H](CO)O2)c(=O)n1 [2-deoxycytidine]
growth stimulation by supplement (well color) (S. typhimurium pyrCΔ73): turned purple

OC[C@@H](O)[C@@H](O)[C@H](O)[C@@H](O)CO [D-sorbitol]
carbon source utilization, in words [9]: negative | carbon source utilization, in words [10]: negative | carbon source utilization, in words [11]: negative | carbon source utilization, in words [12]: negative | carbon source utilization result [1]: positive | carbon source utilization result (T. harzianum DAOM 190830): positive

Nc1nc2c(ncn2[C@H]2C[C@H](O)[C@@H](CO)O2)c(=O)[nH]1 [2′deoxyguanosine]
growth stimulation by supplement (well color) (S. typhimurium pyrCΔ73): turned weakly purple

O=C(O)CO [Glycolic acid]
carbon source utilization, in words [4]: negative

Nc1ccn([C@@H]2O[C@H](COP(=O)(O)O)[C@@H](O)[C@H]2O)c(=O)n1 [cytidine 5′-monophosphate]
suitability as phosphorus source (growth, purple color) (E. coli MG1655 [13]): positive | growth stimulation by supplement (well color) (S. typhimurium pyrCΔ73): turned purple

OC[C@H]1O[C@@H](n2cnc3c(O)ncnc32)[C@H](O)[C@@H]1O [Inosine]
carbon source utilization result [1]: positive | carbon source utilization result (T. harzianum DAOM 190830): positive | suitability as nitrogen source (growth, purple color) (E. coli MG1655 [2]): not suitable | growth stimulation by supplement (well color) (S. typhimurium pyrCΔ73): turned weakly purple

O=c1ccn([C@@H]2O[C@H](CO)[C@@H](OP(=O)(O)O)[C@H]2O)c(=O)[nH]1 [uridine 3′-monophosphate]
suitability as phosphorus source (growth, purple color) (E. coli MG1655 [13]): positive | growth stimulation by supplement (well color) (S. typhimurium pyrCΔ73): turned purple

O=C(O)[C@@H](O)[C@@H](O)[C@H](O)[C@@H](O)C(=O)O [D-saccharic acid]
carbon source utilization, in words [9]: negative | carbon source utilization, in words [10]: negative | carbon source utilization, in words [11]: negative | carbon source utilization, in words [12]: negative

O=C[C@H](O)[C@@H](O)[C@H](O)CO [D-xylose]
carbon source utilization, in words [5]: positive | carbon source utilization, in words [3]: negative

Nc1ccn([C@@H]2O[C@H](CO)[C@@H](O)[C@H]2OP(=O)(O)O)c(=O)n1 [cytidine 2′-monophosphate]
suitability as phosphorus source (growth, purple color) (E. coli MG1655 [13]): not suitable | growth stimulation by supplement (well color) (S. typhimurium pyrCΔ73): turned purple

O=C(O)C[C@@H](O)C(=O)O [D-malic acid]
carbon source utilization [5]: + | carbon source utilization [3]: + | carbon source utilization [4]: + | carbon source utilization [6]: + | carbon source utilization [7]: + | carbon source utilization [8]: + | carbon source utilization [9]: + | carbon source utilization [10]: + | carbon source utilization [11]: +

Tween-20
carbon source utilization [5]: − | carbon source utilization [3]: − | carbon source utilization [4]: − | carbon source utilization [6]: −

Nc1ccn([C@@H]2O[C@H](CO)[C@@H](OP(=O)(O)O)[C@H]2O)c(=O)n1 [cytidine 3′-monophosphate]
suitability as phosphorus source (growth, purple color) (E. coli MG1655 [13]): positive | growth stimulation by supplement (well color) (S. typhimurium pyrCΔ73): turned purple

Nc1ncnc2c1ncn2[C@@H]1O[C@H](COP(=O)(O)O)[C@@H](O)[C@H]1O [adenosine 5′-monophosphate]
suitability as phosphorus source (growth, purple color) (E. coli MG1655 [13]): not suitable | growth stimulation by supplement (well color) (S. typhimurium pyrCΔ73): turned weakly purple

O=C[C@H](O)[C@@H](O)[C@@H](O)[C@H](O)CO [D-galactose]
carbon source utilization result [1]: positive | carbon source utilization result (T. harzianum DAOM 190830): positive

O=C[C@H](O)[C@@H](O)[C@@H](O)[C@H](O)C(=O)O [D-galacturonic acid]
carbon source utilization result [1]: positive | carbon source utilization result (T. harzianum DAOM 190830): positive

O=C1CC[C@@H](C(=O)O)N1 [L-pyroglutamic acid]
carbon source utilization result [1]: positive/negative | carbon source utilization result (T. harzianum DAOM 190830): positive | suitability as nitrogen source (growth, purple color) (E. coli MG1655 [2]): not suitable

O=C(O)CCC(=O)O [Succinic acid]
carbon source utilization result [1]: positive | carbon source utilization result (T. harzianum DAOM 190830): positive

O=c1ccn([C@H]2C[C@H](O)[C@@H](CO)O2)c(=O)[nH]1 [2-deoxyuridine]
growth stimulation by supplement (well color) (S. typhimurium pyrCΔ73): turned purple

OCC(O)CO [Glycerol]
carbon source utilization result [1]: positive | carbon source utilization result (T. harzianum DAOM 190830): positive

Nc1ncnc2c1ncn2[C@H]1C[C@H](O)[C@@H](CO)O1 [2′-deoxy-adenosine]
growth stimulation by supplement (well color) (S. typhimurium pyrCΔ73): turned weakly purple

CCC(=O)O [Propionic acid]
carbon source utilization, in words [4]: negative | carbon source utilization result [1]: positive

O=c1cc[nH]c(=O)[nH]1 [uracil]
suitability as nitrogen source (growth, purple color) (E. coli MG1655 [2]): not suitable | growth stimulation by supplement (well color) (S. typhimurium pyrCΔ73): turned purple

Nc1ncnc2c1ncn2[C@@H]1O[C@H](CO)[C@@H](O)[C@H]1OP(=O)(O)O [adenosine-2′-monophosphate]
suitability as phosphorus source (growth, purple color) (E. coli MG1655 [13]): positive | growth stimulation by supplement (well color) (S. typhimurium pyrCΔ73): turned weakly purple

Nc1nc2c(ncn2[C@@H]2O[C@H](CO)[C@@H](O)[C@H]2OP(=O)(O)O)c(=O)[nH]1 [guanosine 2′-monophosphate]
suitability as phosphorus source (growth, purple color) (E. coli MG1655 [13]): positive | growth stimulation by supplement (well color) (S. typhimurium pyrCΔ73): turned weakly purple

Nc1cc[nH]c(=O)n1 [cytosine]
suitability as nitrogen source (growth, purple color) (E. coli MG1655 [2]): not suitable | growth stimulation by supplement (well color) (S. typhimurium pyrCΔ73): turned purple

O=c1ccn([C@@H]2O[C@H](COP(=O)(O)O)[C@@H](O)[C@H]2O)c(=O)[nH]1 [uridine 5′-monophosphate]
suitability as phosphorus source (growth, purple color) (E. coli MG1655 [13]): positive | growth stimulation by supplement (well color) (S. typhimurium pyrCΔ73): turned purple

O=C(O)[C@]1(O)C[C@@H](O)[C@@H](O)[C@H](O)C1 [quinic acid]
carbon source utilization result [1]: negative | carbon source utilization result (T. harzianum DAOM 190830): positive

Nc1ncnc2c1ncn2[C@@H]1O[C@H](CO)[C@@H](OP(=O)(O)O)[C@H]1O [adenosine 3-monophosphate, adenosine 3′-monophosphate]
suitability as phosphorus source (growth, purple color) (E. coli MG1655 [13]): positive | growth stimulation by supplement (well color) (S. typhimurium pyrCΔ73): turned weakly purple

N[C@@H](Cc1ccccc1)C(=O)O [L-phenylalanine]
carbon source utilization result [1]: positive/negative | carbon source utilization result (T. harzianum DAOM 190830): positive | suitability as nitrogen source (growth, purple color) (E. coli MG1655 [2]): not suitable

Nc1nc2c(ncn2[C@@H]2O[C@H](COP(=O)(O)O)[C@@H](O)[C@H]2O)c(=O)[nH]1 [guanosine 5′-monophosphate]
suitability as phosphorus source (growth, purple color) (E. coli MG1655 [13]): positive | growth stimulation by supplement (well color) (S. typhimurium pyrCΔ73): turned weakly purple
